The target in assay [1] is ROR gamma ligand binding domain (Homo sapiens (Human), UniProt P51449). The experiment in a line: ROR gamma luciferase reporter assay (GAL4-ROR gamma LBD, HEK293 cells). The settings on record: 48 hours treatment, read-out: RORγ luciferase Reporter assay: IC50 (nM) (in range). The format is cell-based. As for the experimental part: The Ligand Binding Domain (LBD) of ROR gamma was cloned into pFN26A (BIND) hRluc-neo Flexi vector (Promega) which expresses a fusion protein comprised of a DNA binding domain of the yeast GAL4 gene, a linker segment and ROR gamma ligand binding domain. For the reporter assay 0.02×10^6 HEK293 cells were seeded per well in a 96 well plate in complete media and incubated overnight in an incubator with 5% CO2 at 37° C. before transfection. Cells were then co-transfected with pFN26A hRluc-neo Flexi vector containing the LBD of ROR gamma and pGL4.35 [luc2P/9XGAL4 UAS/Hygro] Vector (Promega) in low serum media. Post transfection and recovery, cells were treated with the test compounds for 48 hours. The assay was terminated using the Bright-Glo Luciferase assay system from Promega and the Luminescence was measured using a luminescence reader. The luminescence values were used to calculate the potency of the compounds.
Chain of ROR gamma ligand binding domain (P51449 269-508): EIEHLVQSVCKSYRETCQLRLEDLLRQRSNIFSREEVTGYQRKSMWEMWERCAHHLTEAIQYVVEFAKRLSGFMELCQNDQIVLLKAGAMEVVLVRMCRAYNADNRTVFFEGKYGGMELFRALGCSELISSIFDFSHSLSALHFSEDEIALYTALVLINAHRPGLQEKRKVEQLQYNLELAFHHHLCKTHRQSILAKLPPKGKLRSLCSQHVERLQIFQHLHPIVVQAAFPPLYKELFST
In general terms: In a reporter assay the amount or activity of a reporter protein is the signal.

In a further assay the target is RORγ LBD (Homo sapiens (Human), UniProt P51449). The experiment in a line: ROR gamma radio-ligand binding assay (3H 25-Hydroxycholesterol competitive displacement, dextran charcoal method). The settings on record: for inhibition at 1 µM: 1 μM compound; for inhibition at 10 µM: 10 μM compound; for IC50: in range. The procedure: Gene corresponding to the ligand binding domain of RORγ (247-497 amino acids) was sub-cloned into pGEX4T1 vector. Transformants of E. coli BL21 (DE3) containing pGEX4T1-RORγ (247-497) were grown to an OD of 0.8 at 37° C. and induced with 0.5 mM isopropyl-β-D-thiogalactopyranoside (IPTG) for 18 hours at 18° C. Cells were harvested and resuspended in 20 mM Tris-HCl (pH 8.5), 0.3 M NaCl, 10% Glycerol, 2 mM β-Me (β-Mercaptoethanol), 2 mM CHAPS, protease inhibitors, 0.6 mM PMSF and Lysozyme. Supernatant of lysate was passed through glutathione sepharose 4B affinity beads (GE health care) pre-equilibrated with 20 mM Tris-HCl (pH 8.5), 0.3 M NaCl, 10% Glycerol, 2 mM β-Me. RORγ was eluted using a gradient of reduced glutathione (3-20 mM). Fractions containing RORγ protein were pooled, concentrated and passed through Superdex 75 gel filtration (GE health care) column equilibrated with 20 mM Na-phosphate pH 8.0, 0.2 M NaCl, 10% glycerol. The peak fractions from gel filtration column were pooled and stored at −80° C. for Binding assay.
Chain of RORγ LBD (P51449 268-518): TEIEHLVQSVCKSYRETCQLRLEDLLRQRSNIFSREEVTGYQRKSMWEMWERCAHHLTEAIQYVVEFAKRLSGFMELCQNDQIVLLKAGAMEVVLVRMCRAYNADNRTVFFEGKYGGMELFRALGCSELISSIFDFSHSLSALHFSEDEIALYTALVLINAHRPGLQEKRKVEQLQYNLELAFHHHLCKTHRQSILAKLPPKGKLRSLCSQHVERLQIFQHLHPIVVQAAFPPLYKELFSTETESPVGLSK
ROR gamma radioligand binding was performed using ^3H 25-Hydroxycholesterol in a competitive displacement assay using dextran charcoal method. Using 5 nM ^3H 25-Hydroxycholesterol with 300 ng RORγ LBD (in house expressed in E. coli) along with the compound were incubated in the binding buffer (50 mM HEPES, pH 7.5, 150 mM NaCl, 0.01% BSA and 5 mM MgCl2) for 30 min at room temperature. Then dextran-charcoal mixture (0.5% charcoal: 0.05% dextran) was used for separation and the supernatant was read on the Perkin Elmer Trilux Microbeta counter. Dose response curves were generated for 10 compound concentrations using GraphPad Prism software Version 5 (San Diego, Calif., USA) using non-linear regression curve fit for sigmoidal dose response (variable slope).

Structures are written as SMILES. A value given as a limit tells only on which side of the number the result lay.

For the compound `CCS(=O)(=O)c1ccc(CC(=O)Nc2cc(C)c3c(n2)CCC(C)(c2ccc4nccn4n2)C3=O)cc1` (stereo not shown) [Compound 77, 2-(4-(ethylsulfonyl)phenyl)-N-(6-(imidazo[1,2-b]pyridazin-6-yl)-4,6-dimethyl-5-oxo-5,6,7,8-tetrahydroquinolin-2-yl)acetamide], the IC50 in assay [1] lay in the range of 100 to 500 nM.

As to `CCS(=O)(=O)c1ccc(CC(=O)Nc2ccc3c(n2)CCC(C)(c2cc(OC)nc(C)n2)C3=O)cc1` (single isomer, unassigned) [compound 116, 2-(4-(ethylsulfonyl)phenyl)-N-(6-(6-methoxy-2-methylpyrimidin-4-yl)-6-methyl-5-oxo-5,6,7,8-tetrahydroquinolin-2-yl)acetamide], the IC50 in assay [1] was more than 500 nM.

`CCS(=O)(=O)c1ccc(CC(=O)Nc2ccc3c(n2)CCC(C)(c2cc(OC)nc(C)n2)C3=O)cc1` (single isomer, unassigned) [compound 115, 2-(4-(ethylsulfonyl)phenyl)-N-(6-(6-methoxy-2-methylpyrimidin-4-yl)-6-methyl-5-oxo-5,6,7,8-tetrahydroquinolin-2-yl)acetamide]: the IC50 in assay [1] is less than 100 nM.

As to `CCS(=O)(=O)c1ccc(CC(=O)Nc2ccc3c(n2)CCC(C)(c2cnc(C(C)C)cn2)C3=O)cc1` (stereo not shown) [Compound 60, 2-(4-(ethylsulfonyl)phenyl)-N-(6-(5-isopropylpyrazin-2-yl)-6-methyl-5-oxo-5,6,7,8-tetrahydroquinolin-2-yl)acetamide], the IC50 in assay [1] is 100 to 500 nM.

For the compound `CCS(=O)(=O)c1ccc(CC(=O)Nc2ccc3c(n2)CCC(C)(c2cc(OC)nc(C)n2)C3=O)cc1` (stereo not shown) [Compound 65, 2-(4-(ethylsulfonyl)phenyl)-N-(6-(6-methoxy-2-methylpyrimidin-4-yl)-6-methyl-5-oxo-5,6,7,8-tetrahydroquinolin-2-yl)acetamide], the half-inhibitory concentration (IC50) in assay [1] is less than 100 nM.

Consider `CCS(=O)(=O)c1ccc(CC(=O)Nc2cc(C)c3c(n2)CCC(C)(c2ncc(OC)cn2)C3=O)cc1` (stereo not shown) [Compound 61, 2-(4-(ethylsulfonyl)phenyl)-N-(6-(5-methoxypyrimidin-2-yl)-4,6-dimethyl-5-oxo-5,6,7,8-tetrahydroquinolin-2-yl)acetamide], for which, at RORγ LBD, the inhibition at 1 µM was determined as 90%, the inhibition at 10 µM amounted to 74% and the IC50 is less than 150 nM.

For the compound `CCS(=O)(=O)c1ccc(CC(=O)Nc2cc(C)c3c(n2)CCC(C)(n2cccn2)C3=O)cc1` (stereo not shown) [Compound 47], on RORγ LBD, the inhibition at 1 µM came to 82%, the inhibition at 10 µM was 98% and the 50% inhibitory concentration (IC50) is less than 150 nM.

`CCS(=O)(=O)c1ccc(CNC(=O)c2cc3c(cn2)C(=O)C(C)(c2cc(C)nc(C)n2)CC3)cc1` (stereo not shown) [Compound-134, 7-(2,6-dimethylpyrimidin-4-yl)-N-(4-(ethylsulfonyl)benzyl)-7-methyl-8-oxo-5,6,7,8-tetrahydroisoquinoline-3-carboxamide]: the IC50 in assay [1] lay within 100 to 500 nM.

Take `CCS(=O)(=O)c1ccc(CC(=O)Nc2cc(C)c3c(n2)CCC(C)(c2ccc4c(c2)ncn4C)C3=O)cc1` (stereo not shown) [Compound 43, N-(4,6-dimethyl-6-(1-methyl-1H-benzo[d]imidazol-5-yl)-5-oxo-5,6,7,8-tetrahydroquinolin-2-yl)-2-(4-(ethylsulfonyl)phenyl)acetamide]: on RORγ LBD, the inhibition at 1 µM came out at 82% and the half-maximal inhibitory concentration (IC50) is less than 150 nM.

For the compound `CCS(=O)(=O)c1ccc(CC(=O)Nc2cc(C)c3c(n2)CCC(C)(c2c(C)ccnc2O)C3=O)cc1` (stereo not shown) [Compound 86, 2-(4-(ethylsulfonyl)phenyl)-N-(6-(2-hydroxy-4-methylpyridin-3-yl)-4,6-dimethyl-5-oxo-5,6,7,8-tetrahydroquinolin-2-yl)acetamide], on RORγ LBD, the inhibition at 1 µM was 72%, the inhibition at 10 µM was determined as 100% and the IC50 was less than 150 nM.

For the compound `CCc1cc(C2(C)CCc3nc(NC(=O)Cc4ccc(S(=O)(=O)CC)cc4)ccc3C2=O)nc(CC)n1` (stereo not shown) [compound 133, N-(6-(2,6-diethylpyrimidin-4-yl)-6-methyl-5-oxo-5,6,7,8-tetrahydroquinolin-2-yl)-2-(4-(ethylsulfonyl)phenyl)acetamide], on RORγ LBD, the inhibition at 1 µM is 96%, the inhibition at 10 µM came to 109% and the IC50 is less than 150 nM.

As to `CCc1nc(C)cc(C2(C)CCc3nc(NC(=O)Cc4ccc(S(=O)(=O)CC)cc4)ccc3C2=O)n1` (stereo not shown) [compound 132, N-(6-(2-ethyl-6-methylpyrimidin-4-yl)-6-methyl-5-oxo-5,6,7,8-tetrahydroquinolin-2-yl)-2-(4-(ethylsulfonyl)phenyl)acetamide], on RORγ LBD, the inhibition at 1 µM is 99%, the inhibition at 10 µM stood at 103% and the IC50 is less than 150 nM.

For the compound `CCc1cc(C2(C)CCc3nc(NC(=O)Cc4ccc(S(=O)(=O)CC)cc4)ccc3C2=O)nc(C)n1` (stereo not shown) [Compound-131], on RORγ LBD, the inhibition at 1 µM came out at 51% and the inhibition at 10 µM was 42%.

With `CCS(=O)(=O)c1ccc(CC(=O)Nc2cc(C)c3c(n2)CCC(C)(c2cccc(OC)n2)C3=O)cc1` (stereo not shown) [Compound 19, 2-(4-(ethylsulfonyl)phenyl)-N-(6-(6-methoxypyridin-2-yl)-4,6-dimethyl-5-oxo-5,6,7,8-tetrahydroquinolin-2-yl)acetamide], on RORγ LBD, the inhibition at 1 µM is 98%, the inhibition at 10 µM came out at 98% and the half-inhibitory concentration (IC50) lay within 150 to 300 nM.

For the compound `CCS(=O)(=O)c1ccc(CC(=O)Nc2ccc3c(n2)CC(C)(C)C(c2ncccc2O)C3=O)cc1` (stereo not shown) [Compound 87, 2-(4-(ethylsulfonyl)phenyl)-N-(6-(3-hydroxypyridin-2-yl)-7,7-dimethyl-5-oxo-5,6,7,8-tetrahydroquinolin-2-yl)acetamide], on RORγ LBD, the inhibition at 1 µM amounted to 82%, the inhibition at 10 µM is 99% and the half-inhibitory concentration (IC50) lay within 150 to 300 nM.

Take `CCS(=O)(=O)c1ccc(CC(=O)Nc2cc3c(cn2)C(=O)C(C)(c2cc(C)nc(C)n2)CC3)cc1` (stereo not shown) [compound 128, N-(7-(2,6-dimethylpyrimidin-4-yl)-7-methyl-8-oxo-5,6,7,8-tetrahydroisoquinolin-3-yl)-2-(4-(ethylsulfonyl)phenyl)acetamide]: at RORγ LBD, the inhibition at 1 µM came out at 79%, the inhibition at 10 µM came out at 110% and the IC50 is less than 150 nM.

Consider `CCS(=O)(=O)c1ccc(CC(=O)Nc2cc(C)c3c(n2)CCC(C)(c2cccnc2O)C3=O)cc1` (stereo not shown) [Compound 84, 2-(4-(ethylsulfonyl)phenyl)-N-(6-(2-hydroxypyridin-3-yl)-4,6-dimethyl-5-oxo-5,6,7,8-tetrahydroquinolin-2-yl)acetamide], for which, on RORγ LBD, the inhibition at 1 µM came to 82%, the inhibition at 10 µM was determined as 100% and the IC50 fell in the range of 150 to 300 nM.

Turning to `CCS(=O)(=O)c1ccc(CC(=O)Nc2cc(C)c3c(n2)CCC(C)(c2ccc4c(c2)OCO4)C3=O)cc1` (stereo not shown) [Compound 42, N-(6-(benzo[d][1,3]dioxol-5-yl)-4,6-dimethyl-5-oxo-5,6,7,8-tetrahydroquinolin-2-yl)-2-(4-(ethylsulfonyl)phenyl)acetamide], on RORγ LBD, the inhibition at 1 µM is 94%, the inhibition at 10 µM is 92% and the IC50 was less than 150 nM.

Turning to `CCS(=O)(=O)c1ccc(CC(=O)Nc2ccc3c(n2)CCC(C)(n2nc(C)cc2C)C3=O)cc1` (stereo not shown) [Compound 46, N-(6-(3,5-dimethyl-1H-pyrazol-1-yl)-6-methyl-5-oxo-5,6,7,8-tetrahydroquinolin-2-yl)-2-(4-(ethylsulfonyl)phenyl)acetamide], on RORγ LBD, the inhibition at 1 µM was found to be 56%, the inhibition at 10 µM was found to be 92% and the IC50 was more than 300 nM.

`CCS(=O)(=O)c1ccc(CC(=O)Nc2cc(C)c3c(n2)CCC(C)(c2cc(C)nc(OC)n2)C3=O)cc1` (stereo not shown) [Compound-135, 2-(4-(ethylsulfonyl)phenyl)-N-(6-(2-methoxy-6-methylpyrimidin-4-yl)-4,6-dimethyl-5-oxo-5,6,7,8-tetrahydroquinolin-2-yl)acetamide]: on RORγ LBD, the inhibition at 1 µM was 90%, the inhibition at 10 µM amounted to 104% and the IC50 is less than 150 nM.

Regarding `CCS(=O)(=O)c1ccc(CC(=O)Nc2cc(C)c3c(n2)CCC(C)(c2ncccc2O)C3=O)cc1` (stereo not shown) [Compound 85, 2-(4-(ethylsulfonyl)phenyl)-N-(6-(3-hydroxypyridin-2-yl)-4,6-dimethyl-5-oxo-5,6,7,8-tetrahydroquinolin-2-yl)acetamide], on RORγ LBD, the inhibition at 1 µM is 62%, the inhibition at 10 µM amounted to 95% and the IC50 is more than 300 nM.

One may read the IC50 as the concentration that gives 50% inhibition. A word on the inhibition: it is the relative decrease from the control value, in per cent.

The values are drawn from patent US11229636B2, “Substituted tetrahydroquinolinone compounds as ROR gamma modulators” (Aurigene Discovery Technologies Limited, priority 2015, dated 2022).
